How the values were obtained:
Conditions in all cases: 72 h
Vero E6 [1] = experiment: drug sensitivity score (DSS) for viability; higher = more toxic; extreme values may be limits of the assay
HepG2 [2] = experiment: as above
Caco-2 [3] = experiment: as above
U2OS [4] = experiment: as above
Vero E6 [5] = experiment: relative viability EC50 (midpoint between 100% and the lowest measured viability); higher = less toxic
HepG2 [6] = experiment: as above
Caco-2 [7] = experiment: as above
U2OS [8] = experiment: as above
Vero E6 [9] = experiment: cell viability relative to DMSO; higher = less toxic
HepG2 [10] = experiment: as above
Caco-2 [11] = experiment: as above
U2OS [12] = experiment: as above
Calu-3 [13] = experiment: drug sensitivity score (DSS) for viability; higher = more toxic; extreme values may be limits of the assay
Calu-3 [14] = experiment: cell viability relative to DMSO; higher = less toxic

Row | Compound | drug sensitivity score (Vero E6 [1]) | drug sensitivity score (HepG2 [2]) | drug sensitivity score (Caco-2 [3]) | drug sensitivity score (U2OS [4]) | relative viability EC50 (Vero E6 [5]) | relative viability EC50 (HepG2 [6]) | relative viability EC50 (Caco-2 [7]) | relative viability EC50 (U2OS [8]) | cell viability (Vero E6 [9]; 1 nM) | cell viability (Vero E6 [9]; 10 nM) | cell viability (Vero E6 [9]; 100 nM) | cell viability (Vero E6 [9]; 1000 nM) | cell viability (Vero E6 [9]; 10000 nM) | cell viability (HepG2 [10]; 1 nM) | cell viability (HepG2 [10]; 10 nM) | cell viability (HepG2 [10]; 100 nM) | cell viability (HepG2 [10]; 1000 nM) | cell viability (HepG2 [10]; 10000 nM) | cell viability (Caco-2 [11]; 1 nM) | cell viability (Caco-2 [11]; 10 nM) | cell viability (Caco-2 [11]; 100 nM) | cell viability (Caco-2 [11]; 1000 nM) | cell viability (Caco-2 [11]; 10000 nM) | cell viability (U2OS [12]; 1 nM) | cell viability (U2OS [12]; 10 nM) | cell viability (U2OS [12]; 100 nM) | cell viability (U2OS [12]; 1000 nM) | cell viability (U2OS [12]; 10000 nM) | drug sensitivity score (Calu-3 [13]) | cell viability (Calu-3 [14]; 1 nM) | cell viability (Calu-3 [14]; 10 nM) | cell viability (Calu-3 [14]; 100 nM) | cell viability (Calu-3 [14]; 1000 nM) | cell viability (Calu-3 [14]; 10000 nM)
1 | C[N+](C)(C)NCCC(=O)O [meldonium] | 0 | 0 | 0 | 0 | > 10 µM | > 10 µM | > 10 µM | > 10 µM | 99.1% | 105% | 95.5% | 97% | 101% | 97.6% | 96.1% | 98.4% | 107% | 101% | 96.1% | 101% | 102% | 92% | 102% | 102% | 99.1% | 104% | 97.7% | 101% | – | – | – | – | – | –
2 | N.N.O=C([O-])C[O-].[Pt+2] [nedaplatin] | – | 0 | – | – | – | – | – | – | – | – | – | – | – | – | – | – | – | – | – | – | – | – | – | – | – | – | – | – | – | – | – | – | – | –
3 | C#C[C@]1(O)CC[C@H]2[C@@H]3CCC4=C(CCC(=O)C4)[C@H]3CC[C@@]21C [noretynodrel] | 0 | – | 0 | – | > 10 µM | – | > 10 µM | – | 95.2% | 99% | 93.7% | 95.9% | 101% | – | – | – | – | – | 99.5% | 105% | 104% | 96.1% | 99% | – | – | – | – | – | – | – | – | – | – | –
4 | C[C@H](/C=C/[C@H](C)C(C)(C)O)[C@H]1CC[C@H]2/C(=C/C=C3C[C@@H](O)C[C@H](O)C3)CCC[C@]12C [paricalcitol] | 0 | 0.9 | 0.1 | 0 | > 10 µM | > 10 µM | > 10 µM | > 10 µM | 96.6% | 97.3% | 95.4% | 103% | 101% | 101% | 99.2% | 99.3% | 95.6% | 82.1% | 102% | 101% | 98.8% | 89.8% | 96.5% | 107% | 98.1% | 98.9% | 97.6% | 99.3% | – | – | – | – | – | –
5 | CC(=O)c1ccc2c(c1)N(CCCN1CCC(CCO)CC1)c1ccccc1S2 [piperacetazine] | 0 | 0.9 | – | 0 | – | – | – | – | – | – | – | – | – | – | – | – | – | – | – | – | – | – | – | – | – | – | – | – | 0 | – | – | – | – | –
6 | Cc1cc(CC(C)CC(C)(C)C)n(O)c(=O)c1 (stereo not given) [piroctone-olamine] | 0 | 0 | 1.8 | 4.2 | > 10 µM | > 10 µM | – | – | 102% | 96.1% | 104% | 95.5% | 108% | 97.6% | 102% | 102% | 110% | 93.3% | 100% | 96.3% | 103% | 97.6% | 68% | 95.1% | 93.9% | 100% | 88% | 54.8% | 3.4 | 98% | 97.1% | 102% | 80% | 72.4%
7 | c1ccc2c(Oc3nc(Nc4ccc(N5CCOCC5)cc4)c4ncn(C5CCCCC5)c4n3)cccc2c1 [purmorphamine] | 0 | 1.7 | 0 | – | > 10 µM | > 10 µM | > 10 µM | – | 99.2% | 96.1% | 100% | 91.7% | 90.1% | 97.4% | 105% | 103% | 91.9% | 77.8% | 94.9% | 94.2% | 89.8% | 98.7% | 85.9% | – | – | – | – | – | 0.7 | 92.7% | 92.4% | 94.3% | 106% | 74.3%
8 | C/C(=N\NC(=N)N)c1cc(NC(=O)CCCCCCCCC(=O)Nc2cc(/C(C)=N/NC(=N)N)cc(/C(C)=N/NC(=N)N)c2)cc(/C(C)=N/NC(=N)N)c1 [semapimod] | 1.2 | 3 | 2.5 | 1.3 | > 10 µM | – | – | – | 100% | 93.4% | 92.1% | 94.7% | 75.9% | 91.9% | 99.6% | 104% | 90.3% | 65.6% | 99.4% | 103% | 106% | 91.1% | 71% | 101% | 103% | 96.3% | 102% | 67.6% | 3.3 | 98.5% | 98.6% | 102% | 88.1% | 65.8%
9 | CC(C)N1CCN(c2ccc(OCC3COC(Cn4cncn4)(c4ccc(Cl)cc4Cl)O3)cc2)CC1 (stereo not given) [terconazole] | 1.9 | 3.3 | 0.9 | 0 | > 10 µM | – | – | > 10 µM | 116% | 96.8% | 106% | 90.8% | 76.8% | 124% | 121% | 124% | 89.8% | 62.6% | 90.6% | 98.2% | 94.3% | 108% | 70.9% | 97.4% | 104% | 105% | 104% | 93.8% | 2.6 | 103% | 105% | 89.1% | 97.8% | 54.7%
10 | COc1cc(/C=C(\C#N)C(N)=O)cc(CSc2nc3ccccc3s2)c1O [tyrphostin-AG-825] | 0 | 0 | 0 | 0 | > 10 µM | > 10 µM | > 10 µM | > 10 µM | 92.6% | 97% | 94.7% | 93.8% | 105% | 105% | 92.4% | 103% | 97.3% | 108% | 102% | 103% | 96.2% | 107% | 96.4% | 94.7% | 99.9% | 97.7% | 96% | 101% | – | – | – | – | – | –

Source: the supplement of paper PMC13380429
